In DBAASP one finds MIC data, which are given here for 7 compounds.

Test systems include Candida krusei ATCC 6258; Staphylococcus aureus MR; Escherichia coli K-12; Candida krusei NCPF 3876.
What all share (assay): ≥ marks a high value that may be exact or a test limit, other limits are often not marked, values filed in µg/mL are converted to µM
In assay [1] the test system is Candida glabrata ATCC 90030.
Assay [2] has as its system Enterococcus faecalis CECT 481.
Assay [3] deals with Escherichia coli CECT 434.
In assay [4] the test system is Staphylococcus aureus CECT 435.
Assay [5] deals with Streptococcus agalactiae CECT 183T.
Assay [6] concerns Bacillus subtilis ATCC 6633.
Assay [7] deals with Enterococcus faecalis ATCC 19433.
The subject of assay [8] is Enterococcus faecium ATCC 19434.
In assay [9] the test system is Escherichia coli ATCC 25922.
The test system of assay [10] is Klebsiella pneumoniae ATCC 13883.
The subject of assay [11] is Proteus mirabilis CCUG 26767.
Assay [12] has as its system Pseudomonas aeruginosa ATCC 27853.
The test system of assay [13] is Salmonella enterica subsp. enterica serovar Typhimurium LT2.
The test system of assay [14] is Staphylococcus aureus ATCC 29213.
Assay [15] relates to Micrococcus luteus NCIMB 13267.
Assay [16] deals with Staphylococcus aureus ATCC 6538.
Assay [17] deals with Acinetobacter baumannii ATCC 17978.
Assay [18] has as its system Candida albicans ATCC 90028.
Assay [19] concerns Escherichia coli NCTC 12923.
In assay [20] the test system is Klebsiella pneumoniae NCTC 13368.
Assay [21] relates to Pseudomonas aeruginosa PAO1.
In assay [22] the test system is Staphylococcus aureus ATCC 9144.
Assay [23] has as its system Staphylococcus aureus USA 300.
For assay [24], the system named is Pseudomonas aeruginosa PA214.
Assay [25] relates to Acinetobacter baumannii ATCC 19606.
Assay [26] concerns Acinetobacter baumannii ATCC BAA-1605.
For assay [27], the system named is Acinetobacter baumannii CR17.
For assay [28], the system named is Enterococcus faecium ATCC 700221.
Assay [29] relates to Klebsiella pneumoniae ATCC 700603.
Assay [30] relates to Staphylococcus aureus ATCC 33591.
Assay [31] deals with Escherichia coli KpC+001812446.
Assay [32] deals with Klebsiella pneumoniae KpC+001825971.

Molecules are shown by their SMILES. ≈ marks a conversion by molar mass, not a printed value.

For orientation: MIC means the lowest concentration that inhibits growth of the organism. A high value points to a need for much substance. On to `CC[C@H](C)[C@H](NC(=O)CNC(=O)[C@H](CCC(N)=O)NC(=O)[C@@H](NC(=O)[C@@H]1CCCN1C(=O)CNC(=O)[C@H](CC(=O)O)NC(=O)CNC(=O)[C@H](CCCCN)NC(=O)[C@H](CC(C)C)NC(=O)[C@@H](NC(=O)[C@H](CS)NC(=O)[C@@H](NC(=O)[C@H](C)NC(=O)[C@H](CCCCN)NC(=O)[C@@H](NC(=O)[C@H](C)N)[C@@H](C)O)C(C)C)C(C)C)C(C)C)C(=O)N[C@H](C(=O)N[C@@H](CC(N)=O)C(=O)N[C@@H](Cc1ccccc1)C(=O)O)[C@@H](C)CC` [ATKAVCVLKGDGPVQGIINF], for which the MIC in [1] was not below 126 µM; in the assay with Candida krusei ATCC 6258 it was 3.94 µM (≈ 8 µg/mL); in [2], 7.88 µM (≈ 16 µg/mL); in assay [3] it was 31.5 µM (≈ 64 µg/mL); in assay [4], 7.88 µM (≈ 16 µg/mL); in the assay with Staphylococcus aureus MR, 7.88 µM (≈ 16 µg/mL). The compound further registered an MIC in assay [5] of 7.88 µM (≈ 16 µg/mL).
For `CC[C@H](C)[C@H](NC(=O)[C@H](CC(C)C)NC(=O)[C@@H]1CCCN1C(=O)[C@H](CC(C)C)NC(=O)[C@@H](N)Cc1ccccc1)C(=O)N[C@@H](CC(C)C)C(=O)N[C@@H](Cc1ccccc1)C(=O)N[C@@H](Cc1c[nH]c2ccccc12)C(=O)N[C@H](C(=O)N[C@H](C(=O)N[C@H](C(=O)N[C@@H](C)C(=O)N[C@@H](CC(C)C)C(N)=O)[C@@H](C)O)C(C)C)[C@@H](C)CC` [FLPLILFWIVTAL], the minimum inhibitory concentration (MIC) in [6] is not below 388 µM; in assay [7] it was not below 388 µM; in assay [8] it was not below 388 µM; in assay [9], more than 388 µM; in assay [10], not below 388 µM; in assay [11], not below 388 µM. For the same compound, the values for the MIC in assay [12], in assay [13] and in assay [14] were more than 388 µM, not below 388 µM and more than 388 µM, respectively.
For `CC(C)C[C@H](NC(=O)[C@H](CO)NC(=O)[C@H](CCC(=O)O)NC(=O)[C@H](CC(C)C)NC(=O)[C@H](CCC(N)=O)NC(=O)[C@H](CCC(N)=O)NC(=O)[C@H](CCC(=O)O)NC(=O)[C@H](CC(C)C)NC(=O)[C@H](CCC(N)=O)NC(=O)[C@H](CO)NC(=O)[C@H](CC(C)C)NC(=O)[C@H](CCC(=O)O)NC(=O)[C@H](CCC(N)=O)NC(=O)[C@H](CCC(=O)O)NC(=O)[C@H](CC(C)C)NC(=O)[C@H](CO)NC(=O)[C@H](CCC(N)=O)NC(=O)[C@H](C)NC(=O)[C@H](CCC(=O)O)NC(=O)[C@H](CCC(N)=O)NC(=O)[C@H](CCC(=O)O)NC(=O)[C@H](Cc1ccccc1)NC(=O)[C@H](CCC(N)=O)NC(=O)[C@H](C)NC(=O)[C@H](Cc1ccccc1)NC(=O)[C@H](CCC(=O)O)NC(=O)CN)C(=O)O` [GEFAQFEQEAQSLEQELSQLEQQLESL], the MIC in assay [6] was not below 200 µM; against Escherichia coli K-12 it was not below 200 µM; in assay [15] it was not below 200 µM; in [12], more than 200 µM; in assay [16], more than 200 µM.
Take `CC[C@H](C)[C@H](N)C(=O)N[C@@H](CCCN=C(N)N)C(=O)NCC(=O)N[C@@H](Cc1ccc(O)cc1)C(=O)N[C@@H](CCCCN)C(=O)NCC(=O)NCC(=O)N[C@@H](Cc1ccc(O)cc1)C(=O)N[C@@H](CS)C(=O)N[C@@H](CCCCN)C(N)=O` [IRGYKGGYCK]: the MIC in assay [17] is not below 112 µM; in assay [18] it was 15.4 µM (≈ 17.6 µg/mL); with Candida krusei NCPF 3876, not below 112 µM; in assay [19], not below 112 µM; in assay [20], not below 112 µM; in assay [21], more than 112 µM. Moreover, the minimal inhibitory concentration (MIC) in [22] and in assay [23] was not below 112 µM throughout.
Turning to `CC(C)C[C@H](NC(=O)[C@H](Cc1ccccc1)NC(=O)[C@H](C)NC(=O)[C@H](C)NC(=O)[C@H](CCCCN)NC(=O)[C@H](CCCCN)NC(=O)[C@H](CCCCN)NC(=O)[C@@H](N)CCCCN)C(=O)N[C@@H](CCCCN)C(=O)N[C@@H](CC(C)C)C(=O)N[C@@H](Cc1c[nH]c2ccccc12)C(=O)N[C@@H](CC(C)C)C(=O)N[C@@H](CCCCN)C(=O)N[C@@H](CC(C)C)C(=O)N[C@@H](Cc1ccccc1)C(=O)N[C@@H](C)C(=O)N[C@@H](C)C(N)=O` [KKKKAAFLKLWLKLFAA], the MIC against Escherichia coli K-12 was 12.5 µM (≈ 25 µg/mL); in assay [24] it was not below 50 µM; in [21], more than 50 µM.
With `CC[C@H](C)[C@H](NC(=O)[C@H](CCCCN)NC(=O)[C@H](CCCN=C(N)N)NC(=O)[C@H](Cc1ccccc1)NC(=O)[C@H](CC(C)C)NC(=O)[C@H](CCCN=C(N)N)NC(=O)[C@@H](N)CCCCN)C(=O)N[C@@H](CC(C)C)C(=O)N[C@@H](CCCCN)C(=O)N[C@@H](Cc1ccc(O)cc1)C(=O)N[C@@H](CC(C)C)C(N)=O` [KRLFRKILKYL], the MIC in assay [25] was found to be 3.04 µM (≈ 4.5 µg/mL); in assay [26] it was 3.04 µM (≈ 4.5 µg/mL); in [27], 16.1 µM (≈ 23.8 µg/mL); in [28], 5.75 µM (≈ 8.49 µg/mL); in [9] it was 11.5 µM (≈ 17 µg/mL); in assay [29], 5.75 µM (≈ 8.49 µg/mL). Besides, the MIC in assay [12] is 11.5 µM (≈ 17 µg/mL); in assay [30], 5.75 µM (≈ 8.49 µg/mL).
Turning to `CC[C@H](C)[C@H](NC(=O)[C@H](CCCCN)NC(=O)[C@H](CCCCN)NC(=O)[C@H](Cc1ccccc1)NC(=O)[C@H](CC(C)C)NC(=O)[C@H](CCCCN)NC(=O)[C@H](Cc1c[nH]c2ccccc12)NC(=O)[C@H](CCCCN)NC(=O)[C@H](Cc1cnc[nH]1)NC(=O)[C@@H](NC(=O)[C@@H](N)C(C)C)[C@@H](C)CC)C(=O)NCC(=O)N[C@@H](C)C(=O)N[C@H](C(=O)N[C@@H](CC(C)C)C(=O)N[C@@H](CCCCN)C(=O)N[C@H](C(=O)N[C@@H](CC(C)C)C(=O)O)C(C)C)C(C)C` [VIHKWKLFKKIGAVLKVL], the MIC in assay [9] amounted to 4 µM (≈ 8.48 µg/mL); in assay [31], 4 µM (≈ 8.48 µg/mL); in assay [10], 30 µM (≈ 63.6 µg/mL); in assay [32], 8 µM (≈ 17 µg/mL).
